Structures are written as SMILES. ± gives the expanded uncertainty stated by the source.

Results on 7 compounds are retold here after the NIST ThermoML archive (doi:10.1021/je800520w).

The nature of data set [1]: refractive index (Na D-line) (dimensionless). The conditions noted are these: 293.15 K; 101.33 kPa; Liquid; Standard Abbe refractometry.
For data set [2] the following is noted: 293.15 K; 101.33 kPa; Liquid; Pycnometric method.

For the compound `CO` [methanol], in data set [1], the refractive index is 1.3291 ± 0.0005. Also, the mass density in data set [2] worked out at 791.7 ± 0.5 kg/m3.
In the case of `CCCCO` [butan-1-ol], in data set [1], the refractive index came to 1.3997 ± 0.0005. For the same compound, the mass density in data set [2] stood at 810.3 ± 0.5 kg/m3.
In the case of `CCCCCCO` [hexan-1-ol], the refractive index in data set [1] was 1.4175 ± 0.0005. For the same compound, the mass density in data set [2] is 813.8 ± 0.5 kg/m3.
For `CCC(C)O` (centres undefined) [butan-2-ol], in data set [1], the refractive index amounted to 1.3955 ± 0.0005. The mass density in data set [2] is 802.6 ± 0.5 kg/m3.
`CCCCCO` [pentan-1-ol]: the refractive index in data set [1] is listed as 1.4092 ± 0.0005. Also, the mass density in data set [2] came to 812.9 ± 0.5 kg/m3.
For `CC(C)O` [propan-2-ol], in data set [1], the refractive index is reported as 1.378 ± 0.0005. Further, in data set [2], the mass density is 784.9 ± 0.5 kg/m3.
Consider `CCCO` [propan-1-ol], for which the refractive index in data set [1] amounted to 1.3853 ± 0.0005. In data set [2], the mass density was 803.8 ± 0.5 kg/m3.
